Reference: US20230255943A1, “MMP-9 AND MMP-12 INHIBITION FOR TREATING SPINAL CORD INJURY OR RELATED INJURY TO NEUROLOGICAL TISSUE” (The University of Birmingham, priority 2020, published 2023)

How the values were obtained:
MMP-9 = molecular target: T1, MMP-9 (Mus musculus, UniProt P41245); assay: MMP-9 enzyme activity after SCI in mice (SensoLyte 520 fluorimetric assay); assay type: in vivo; conditions: for suppression of MMP-9 activity in CSF / suppression of MMP-9 activity in serum / suppression of MMP-9 activity in spinal cord tissues: DC injury; for suppression of MMP-9 activity in spinal cord tissues: lowest most effective dose; for lowest most effective dose: suppression of MMP-9 and MMP-12 activity
T1 construct: from tissue; host or cells: mouse spinal cord lesion site homogenate, serum and CSF
Experimental: (§1) For oral delivery of AZD1236, n=6 adult male C57BL6 mice/group (Charles River, Margate, UK) were randomly allocated to either: (1), Sham (control; partial laminectomy but no DC crush injury); (2), DC crush injury+vehicle (partial laminectomy followed by DC crush injury and injection of vehicle); (3), DC crush injury+100 mg/kg AZD1236; (4), DC crush injury+200 mg/kg AZD1236; and (5), DC crush injury+300 mg/kg AZD1236. For intrathecal (it) delivery of AZD1236, adult male C57BL6 mice (25-30 g) (Charles River, Margate, UK) were randomly allocated to either: (1), Sham (control; partial laminectomy but no DC crush injury); (2), DC crush injury+vehicle (partial laminectomy followed by DC crush injury and injection of vehicle); (3), DC crush injury+2.5 mg/kg AZD1236; (4), DC crush injury+5 mg/kg AZD1236; and (5), DC crush injury+10 mg/kg AZD1236. For intrathecal delivery an indwelling atlanto-occipital intrathecal catheter was inserted into the intrathecal space, as described previously (F. A. Oladosu, B. P. Ciszek, S. C. O'Buckley, A. G. Nackley, Novel intrathecal and subcutaneous catheter delivery systems in the mouse. J Neurosci Methods 264, 119-128 (2016)). Briefly, with mice in the sternal recumbency a small incision was made at the nape of the neck followed by detachment of the muscles on either side of the external occipital crest to expose the A-O membrane. The membrane was incised and a 6 cm Alzet mouse intrathecal catheter (Alzet, Cupertino, Calif., USA) and polyurethane segments were gently guided 2.5 cm into the intrathecal space. The catheter was secured using 4-0 silk sutures (Oasis Medical, IL) and the exposed end of the catheter was sealed off with a stainless-steel plug and affixed to the upper back. Animals were injected immediately with vehicle or AZD1236 followed by a 10 μl PBS catheter flush. Injections were repeated every twice daily for the first 3 days after injury and drugs and vehicle reagents were delivered over 1 min time period using a Hamilton microlitre syringe (Hamilton Co, USA). Where specified intact animals with no surgical procedures were also used. All lesions were administered under 5% isofluorane induced inhalation anaesthesia, with 1.51/min O2. Pre- and post-injury analgesia was also provided.
(§2) DC crush injury was administered bilaterally at the T8 vertebral level as described previously (S. Surey, M. Berry, A. Logan, R. Bicknell, Z. Ahmed, Differential cavitation, angiogenesis and wound-healing responses in injured mouse and rat spinal cords. Neuroscience 275, 62-80 (2014); M. L. Read, S. Mir, R. Spice, R. J. Seabright, E. L. Suggate, Z. Ahmed, M. Berry, A. Logan, Profiling RNA interference (RNAi)-mediated toxicity in neural cultures for effective short interfering RNA design. J Gene Med 11, 523-534 (2009)). Briefly, calibrated watchmaker's forceps were separated by 0.5 mm and inserted through the dorsal cord meninges to a depth of 0.45 mm in mice and separated by 1 mm and inserted through the dorsal cord meninges to a depth of 1.0 mm in rats, and the DC were crushed for 3 seconds. AZD1236 or vehicle was administered twice daily by oral gavage or intrathecally, either immediately for the first 3 days or 24 hours after injury and treating twice daily until day 4 (i.e. 3 days of AZD1236 dosing). All experiments were performed with n=6 mice/group and repeated on at least 2-3 independent occasions (total=12-18 animals/group/test).
(§3) CC SCI was administered at the T7-T8 vertebral level after exposure of T6-T9 by laminectomy. […]

MMP-12 = molecular target: T2, MMP-12 (Mus musculus, UniProt P34960); assay: MMP-12 enzyme activity after SCI in mice (SensoLyte 520 fluorimetric assay); assay type: in vivo; conditions: for suppression of MMP-12 activity in CSF / suppression of MMP-12 activity in serum / suppression of MMP-12 activity in spinal cord tissues: DC injury; for suppression of MMP-12 activity in spinal cord tissues: lowest most effective dose
T2 construct: from tissue; host or cells: mouse spinal cord lesion site homogenate, serum and CSF
Experimental: as §1, §2, §3

[1] = test system: mice with DC crush injury; assay: BSCB integrity by albumin immunoreactivity; assay type: in vivo, mouse; conditions: oral
Description: After killing animals by exposure to rising concentrations of CO2, mice were intracardially perfused with 4% formaldehyde (TAAB Laboratories, Berkshire, UK) in 0.1M phosphate buffered saline (PBS). The lesion site+5 mm either side were dissected out, post-fixed in 4% formaldehyde and subjected to a graded series of sucrose solutions for cryoprotection. Spinal cords were blocked in OCT mounting compound (TAAB laboratories), sectioned longitudinally at 15 μm-thick using a cryostat (Brights Instruments, Huntingdon, UK) before being collected on charged glass slides (ThermoFisher Scientific, Loughborough, UK) and kept at −20° C. until required. Slides were numbered consecutively and sections from the middle of the lesion site were chosen for all immunohistochemical analyses, as described by previously (Surey S, Berry M, Logan A, Bicknell R, Ahmed Z. Differential cavitation, angiogenesis and wound-healing responses in injured mouse and rat spinal cords. Neuroscience 2014; 275: 62-80).
The integrity of the BSCB was assessed using albumin immunoreactivity in the spinal cord at 3 days after injury, as a surrogate marker of BSCB disruption. Sections were thawed at room temperature and washed in PBS before blocking endogenous […] in H2O2. […]

[2] = injury site, oral dosing withdrawn after 3 d
[3] = optimal doses, 24 h delay vs immediate

T1 sequence (P41245 108-730): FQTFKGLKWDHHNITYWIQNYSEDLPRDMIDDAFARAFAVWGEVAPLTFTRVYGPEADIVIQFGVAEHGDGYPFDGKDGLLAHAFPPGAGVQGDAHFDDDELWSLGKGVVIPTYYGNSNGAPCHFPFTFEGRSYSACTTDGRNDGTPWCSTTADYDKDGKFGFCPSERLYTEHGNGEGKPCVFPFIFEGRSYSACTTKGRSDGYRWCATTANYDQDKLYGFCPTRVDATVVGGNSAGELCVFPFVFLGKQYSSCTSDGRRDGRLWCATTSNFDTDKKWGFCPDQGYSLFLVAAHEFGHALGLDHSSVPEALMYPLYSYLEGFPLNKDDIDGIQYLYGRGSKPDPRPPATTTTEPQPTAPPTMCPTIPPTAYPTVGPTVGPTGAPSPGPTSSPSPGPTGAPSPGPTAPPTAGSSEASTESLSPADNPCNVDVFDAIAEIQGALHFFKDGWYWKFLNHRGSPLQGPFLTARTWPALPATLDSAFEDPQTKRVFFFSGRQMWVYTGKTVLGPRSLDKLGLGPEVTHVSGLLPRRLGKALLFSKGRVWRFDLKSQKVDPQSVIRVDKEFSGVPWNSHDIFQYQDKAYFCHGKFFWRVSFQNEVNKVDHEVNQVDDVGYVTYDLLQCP
T2 sequence (P34960 110-473): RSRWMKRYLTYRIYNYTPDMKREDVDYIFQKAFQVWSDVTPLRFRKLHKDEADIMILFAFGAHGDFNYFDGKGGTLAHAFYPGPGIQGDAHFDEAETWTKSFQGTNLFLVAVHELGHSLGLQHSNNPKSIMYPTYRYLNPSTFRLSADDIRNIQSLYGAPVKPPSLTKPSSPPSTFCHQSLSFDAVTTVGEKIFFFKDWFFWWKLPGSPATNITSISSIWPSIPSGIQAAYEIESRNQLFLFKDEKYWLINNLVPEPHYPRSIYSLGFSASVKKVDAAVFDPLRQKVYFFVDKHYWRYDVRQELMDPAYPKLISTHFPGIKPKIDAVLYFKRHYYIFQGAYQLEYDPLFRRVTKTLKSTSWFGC

**Q.** `C[C@]1(CS(=O)(=O)N2CC=C(C#Cc3cnc(C4CC4)nc3)CC2)NC(=O)NC1=O` [AZD1236] was tested. Which “suppression of MMP-9 activity in CSF” value (MMP-9; intrathecal delivery) did it give?
**A.** 88±2%

**Q.** What about the “suppression of MMP-9 activity in serum” value (MMP-9; intrathecal delivery) of the same compound?
**A.** 71±2%

**Q.** What about the “suppression of MMP-9 activity in spinal cord tissues” value (MMP-9; intrathecal) of the same compound?
**A.** 87±5%

**Q.** What about the “suppression of MMP-9 activity in CSF” value (MMP-9; oral delivery, 200 mg/kg) of the same compound?
**A.** 74±2%

**Q.** And the “suppression of MMP-9 activity in serum” value (MMP-9; oral delivery, 200 mg/kg)?
**A.** 90±2%

**Q.** What about the “suppression of MMP-9 activity in spinal cord tissues” value (MMP-9; oral) of the same compound?
**A.** 88±4%

**Q.** And the “time for MMP-9 activity to return to DC+Vehicle injury levels after withdrawal” value (MMP-9; [2])?
**A.** 4 days

**Q.** And the “lowest most effective dose” value (MMP-9; intrathecal injection)?
**A.** 5 mg/kg

**Q.** What about the “MMP-9 activity, 24-h delayed treatment” value (MMP-9; [3]) of the same compound?
**A.** equally as effective as immediate delivery

**Q.** What about the “lowest most effective dose” value (MMP-9; oral administration) of the same compound?
**A.** 200 mg/kg

**Q.** And the “suppression of MMP-12 activity in CSF” value (MMP-12; intrathecal delivery)?
**A.** 90±1%

**Q.** What about the “suppression of MMP-12 activity in serum” value (MMP-12; intrathecal delivery) of the same compound?
**A.** 71±1%

**Q.** What about the “suppression of MMP-12 activity in spinal cord tissues” value (MMP-12; intrathecal) of the same compound?
**A.** 86±4%

**Q.** And the “suppression of MMP-12 activity in CSF” value (MMP-12; oral delivery, 200 mg/kg)?
**A.** 69±3%

**Q.** And the “suppression of MMP-12 activity in serum” value (MMP-12; oral delivery, 200 mg/kg)?
**A.** 90±3%

**Q.** What about the “suppression of MMP-12 activity in spinal cord tissues” value (MMP-12; oral) of the same compound?
**A.** 85±3%

**Q.** What about the “time for MMP-12 activity to return to DC+Vehicle injury levels after withdrawal” value (MMP-12; [2]) of the same compound?
**A.** 5 days

**Q.** What about the “MMP-12 activity, 24-h delayed treatment” value (MMP-12; [3]) of the same compound?
**A.** equally as effective as immediate delivery

**Q.** And the “suppression of area of BSCB breakdown (albumin immunoreactivity)” value ([1]; 24 h delayed treatment)?
**A.** > 73%

**Q.** And the “suppression of area of BSCB breakdown (albumin immunoreactivity)” value ([1]; immediately after injury, 3 days, vs DC+vehicle)?
**A.** > 75%
